Measured values taken from patent publication US12065654B2, “Plants having increased tolerance to herbicides” (BASF SE, priority 2014, dated 2024).

Columns and labels:
[1] = test system: transgenic soybean plants AtHPPD M335Y, event SDS-9866; assay: Greenhouse testing of soybean plants; type: in vivo, Glycine max; settings: soybean AtHPPD M335Y SDS-9866, 14 days, average of 8 T1 individuals
Protocol: (§1) Transgenic plants expressing heterologous HPPD or HST enzymes are tested for tolerance against HPPD-inhibiting, preferably pyrazolone, isoxazole, or triketone derivative herbicides in greenhouse experiments.
(§2) For post emergence treatment, the test plants are first grown to a height of 3 to 15 cm, depending on the plant habit, and only then treated with the herbicides. For this purpose, the test plants are either sown directly and grown in the same containers, or they are first grown separately and transplanted into the test containers a few days prior to treatment.
(§3) For testing of T0 plants, cuttings can be used. In the case of soybean plants, an optimal shoot for cutting is about 7.5 to 10 cm tall, with at least two nodes present. Each cutting is taken from the original transformant (mother plant) and dipped into rooting hormone powder (indole-3-butyric acid, IBA). The cutting is then placed in oasis wedges inside a bio-dome. Wild type cuttings are also taken simultaneously to serve as controls. The cuttings are kept in the bio-dome for 5-7 days and then transplanted to pots and then acclimated in the growth chamber for two more days. Subsequently, the cuttings are transferred to the greenhouse, acclimated for approximately 4 days, and then subjected to spray tests as indicated.
(§4) Depending on the species, the plants are kept at 10-25° C. or 20-35° C. The test period extends over 3 weeks. During this time, the plants are tended and their response to the individual treatments is evaluated. Herbicide injury evaluations are taken at 2 and 3 weeks after treatment. Plant injury is rated on a scale of 0 to 9, 0 being no injury and 9 being complete death. Tolerance to HPPD-inhibiting, preferably pyrazolone, isoxazole, or triketone derivative herbicides can also be assessed in Arabidopsis. In this case transgenic Arabidopsis thaliana plants are assayed for improved tolerance to HPPD-inhibiting, preferably pyrazolone, isoxazole, or triketone derivative herbicides in 48-well plates. Seeds are surface sterilized by stirring for 5 min in ethanol+water (70+30 by volume), rinsing one time with ethanol+water (70+30 by volume) and two times with a sterile, deionized water. The seeds are resuspended in 0.1% agar dissolved in water (w/v). Four to five seeds per well are plated on solid nutrient medium consisting of half-strength Murashige Skoog nutrient solution, pH 5.8 (Murashige and Skoog (1962) Physiologia Plantarum 15: 473-497). Compounds are dissolved in dimethylsulfoxid (DMSO) and added to the medium prior solidification (final DMSO concentration 0.1%). Multi well plates are incubated in a growth chamber at 22° C., 75% relative humidity and 110 μmol Phot*m−2*s−1 with 14:10 h light:dark photoperiod. Seven to ten days after seeding growth inhibition is evaluated by comparison to wild type plants. Tolerance factor is calculated by dividing the plant growth IC50 value of transgenic plants containing a HPPD and/or HST sequence by that of wildtype plants.
(§5) Transgenic soy plants were sprayed with a range of doses from 6.25-100 g/ha with an HPPD-inhibiting herbicide and injury evaluations were taken two weeks after treatment. […] Compared to the untransformed wild-type, plants comprising polynucleotides encoding for Arabidopsis HPPD wild-type or mutated versions thereof were less susceptible to Inhibitor 1.

[2] = test system: transgenic soybean plants AtHPPD, event SDS-10248; assay: Greenhouse testing of soybean plants; type: in vivo, Glycine max; settings: for Injury evaluation (bleaching phenotype, scale of 1-100): soybean AtHPPD SDS-10248, 14 days, average of 8 T1 individuals
Protocol: as §1, §2, §3, §4, §5

[3] = test system: transgenic soybean plants AtHPPD Q293S, event SDS-9928; assay: Greenhouse testing of soybean plants; type: in vivo, Glycine max; settings: soybean AtHPPD Q293S SDS-9928, 14 days, average of 8 T1 individuals
Protocol: as §1, §2, §3, §4, §5

[4] = test system: Arabidopsis overexpression line Rhodococcus HPPD2; assay: Germination assay in 48-well plates; type: in vivo, Arabidopsis thaliana; settings: IC50 transgenic / wildtype, mean of 5 T2 events
Protocol: as §4

[5] = test system: Arabidopsis overexpression line Arabidopsis F381I; assay: Germination assay in 48-well plates; type: in vivo, Arabidopsis thaliana; settings: IC50 transgenic / wildtype, mean of 5 T2 events
Protocol: as §4

[6] = test system: Arabidopsis overexpression line Arabidopsis M335H, P336A, E363Q; assay: Germination assay in 48-well plates; type: in vivo, Arabidopsis thaliana; settings: IC50 transgenic / wildtype, mean of 5 T2 events
Protocol: as §4

[7] = test system: Arabidopsis overexpression line Hordeum L320H, P321A; assay: Germination assay in 48-well plates; type: in vivo, Arabidopsis thaliana; settings: IC50 transgenic / wildtype, mean of 5 T2 events
Protocol: as §4

[8] = test system: Arabidopsis overexpression line Picrophilus HPPD; assay: Germination assay in 48-well plates; type: in vivo, Arabidopsis thaliana; settings: IC50 transgenic / wildtype, mean of 5 T2 events
Protocol: as §4

[9] = test system: Arabidopsis overexpression line Hordeum L320Q; assay: Germination assay in 48-well plates; type: in vivo, Arabidopsis thaliana; settings: IC50 transgenic / wildtype, mean of 5 T2 events
Protocol: as §4

[10] = test system: Arabidopsis overexpression line Arabidopsis M335H; assay: Germination assay in 48-well plates; type: in vivo, Arabidopsis thaliana; settings: IC50 transgenic / wildtype, mean of 5 T2 events
Protocol: as §4

[11] = test system: transgenic Arabidopsis plants (T2) AtHPPD F381I; assay: Greenhouse herbicide spray test; type: in vivo, Arabidopsis thaliana; settings: two weeks after treatment
Text: as §2
(§6) Herbicide injury scoring is done 2-3 weeks after treatment and is rated on a scale of 0 to 100%, 0% being no injury and 100% being complete death.
(§7) Transgenic Arabidopsis plants were sprayed with a range of doses from 0.78-6.25 g/ha of different HPPD-inhibiting herbicides and injury evaluations were taken two weeks after treatment.

[12] = test system: transgenic Arabidopsis plants (T2) AtHPPD M335H, P336A, E363Q; assay: Greenhouse herbicide spray test; type: in vivo, Arabidopsis thaliana; settings: two weeks after treatment
Text: as §2, §6, §7

[13] = test system: transgenic Arabidopsis plants (T2) PtHPPD WT (Picrophilus HPPD); assay: Greenhouse herbicide spray test; type: in vivo, Arabidopsis thaliana; settings: for Injury evaluation: Arabidopsis T2 PtHPPD WT, two weeks after treatment
Text: as §2, §6, §7

[14] = test system: Arabidopsis plants, transgene none (WT); assay: Greenhouse herbicide spray test; type: in vivo, Arabidopsis thaliana; settings: two weeks after treatment
Text: as §2, §6, §7

[15] = Table 18, no transgene, 0.78 g/ha
[16] = Table 18, no transgene, 1.56 g/ha
[17] = Table 18, no transgene, 3.125 g/ha
[18] = Table 18, no transgene, 6.25 g/ha
[19] = Table 19, no transgene, 0.78 g/ha
[20] = Table 19, no transgene, 1.56 g/ha
[21] = Table 19, no transgene, 3.125 g/ha
[22] = Table 19, no transgene, 6.25 g/ha

Row | Compound | Injury evaluation ([11]; 1.56 g/ha) [%] | Injury evaluation ([11]; 3.125 g/ha) [%] | Injury evaluation ([11]; 6.25 g/ha) [%] | Injury evaluation ([12]; 0.78 g/ha) [%] | Injury evaluation ([12]; 1.56 g/ha) [%] | Injury evaluation ([12]; 3.125 g/ha) [%] | Injury evaluation ([12]; 6.25 g/ha) [%] | Injury evaluation ([13]; 0.78 g/ha) [%] | Injury evaluation ([13]; 1.56 g/ha) [%] | Injury evaluation ([13]; 3.125 g/ha) [%] | Injury evaluation ([13]; 6.25 g/ha) [%] | Injury evaluation [14, 15] [%] | Injury evaluation [14, 16] [%] | Injury evaluation [14, 17] [%] | Injury evaluation [14, 18] [%] | Injury evaluation [14, 19] [%] | Injury evaluation [14, 20] [%] | Injury evaluation [14, 21] [%] | Injury evaluation [14, 22] [%] | further results
1 | Cc1c(C(=O)c2cnn(C)c2O)ccc(S(C)(=O)=O)c1C1=NOCC1 [Inhibitor 1, [3-(4,5-dihydroisoxazol-3-yl)-2-methyl-4-methylsulfonyl-phenyl]-(5-hydroxy-1-methyl-pyrazol-4-yl)methanone] | 43 | 55 | 70 | 0 | 10 | 15 | 15 | 13 | 17 | 62 | 99 | 89 | 99 | 99 | 100 | 85 | 88 | 96 | 99 | Injury evaluation (bleaching phenotype, scale of 1-100) ([1]; 6.25 g/ha): 0%; Injury evaluation (bleaching phenotype, scale of 1-100) ([1]; 25 g/ha): 11%; Injury evaluation (bleaching phenotype, scale of 1-100) ([1]; 100 g/ha): 31%; fold tolerance compared to untransformed wild-type ([2]; soy plants with SEQ ID NO:53, 100 g/ha): 2 fold; Injury evaluation (bleaching phenotype, scale of 1-100) ([2]; 6.25 g/ha): 2%; Injury evaluation (bleaching phenotype, scale of 1-100) ([2]; 25 g/ha): 3%; Injury evaluation (bleaching phenotype, scale of 1-100) ([2]; 100 g/ha): 44%; Injury evaluation (bleaching phenotype, scale of 1-100) ([3]; 6.25 g/ha): 2%; Injury evaluation (bleaching phenotype, scale of 1-100) ([3]; 25 g/ha): 40%; Injury evaluation (bleaching phenotype, scale of 1-100) ([3]; 100 g/ha): 79%; Tolerance factor [4]: 32; Tolerance factor [5]: 90; Tolerance factor [6]: 25; Tolerance factor [7]: 300; Tolerance factor [8]: 10; Tolerance factor [9]: 100; Tolerance factor [10]: 10; fold less susceptible compared to the control ([13]; Arabidopsis expressing Picrophilus HPPD, dose of 3,125 g/ha): 1.6 fold; fold tolerance compared to the control ([13]; Arabidopsis expressing Picrophilus HPPD, two lowest application rates): 6.8 fold
2 | CS(=O)(=O)c1ccc(C(=O)C2C(=O)CCCC2=O)c([N+](=O)[O-])c1 [Inhibitor 2, 2-(4-methylsulfonyl-2-nitro-benzoyl)cyclohexane-1,3-dione] | 20 | 25 | 78 | 3 | 0 | 13 | 12 | 0 | 0 | 3 | 0 | 78 | 95 | 100 | 99 | 93 | 99 | 100 | 100 | leaf damage (in words) ([13]; Arabidopsis overexpressing Picrophilus HPPD (SEQ-ID:40), tested application rates 0.78-6.25 g/ha): no leaf damages could be observed
